From US6586453B2, “Substituted thiazoles and the use thereof as inhibitors of plasminogen activator inhibitor-1” (3-Dimensional Pharmaceuticals, Inc., priority 2000, dated 2003)
pIC50: −log10 of the molar value.

Molecular target: PAI-1 (Homo sapiens, UniProt P05121)
Test: PAI-1 assay (direct chromogenic assay, inhibitory activity of PAI-1 against uPA)
Assay type: biochemical
Details: substrate N-CBZ-VAL-GLY-ARG p-nitroanilide, 10 minute incubation at 37° C., read-out: PAI-1 inhibitory activity in vitro, IC50
Protocol: The inhibitory activity of PAI-1 against uPA was measured by a direct chromogenic assay using the substrate N-CBZ-VAL-GLY-ARG p-nitroanilide. The tested compound was added to PAI-1 which had been diluted in activity assay buffer (0.05M Hepes, pH 7.5, 0.15M NaCl, containing 0.05% N-octyl-D-glucopyranoside and 250 μg/ml bovine serum albumin). After a 10 minute incubation at 37° C., uPA was added (0.04 units/assay), followed immediately by the addition of substrate. After reequilibration at 37° C., residual uPA activity was quantified by measuring the change in absorbance at 405 nm over 12 minutes. The concentration of active PAI-1 in the assays was the amount required to inhibit 80-85% of uPA as compared to samples containing uPA alone.
Compounds No. 1 to 37 were tested in the PAI-1 assay as described above.

Chain of PAI-1 (P05121 24-402): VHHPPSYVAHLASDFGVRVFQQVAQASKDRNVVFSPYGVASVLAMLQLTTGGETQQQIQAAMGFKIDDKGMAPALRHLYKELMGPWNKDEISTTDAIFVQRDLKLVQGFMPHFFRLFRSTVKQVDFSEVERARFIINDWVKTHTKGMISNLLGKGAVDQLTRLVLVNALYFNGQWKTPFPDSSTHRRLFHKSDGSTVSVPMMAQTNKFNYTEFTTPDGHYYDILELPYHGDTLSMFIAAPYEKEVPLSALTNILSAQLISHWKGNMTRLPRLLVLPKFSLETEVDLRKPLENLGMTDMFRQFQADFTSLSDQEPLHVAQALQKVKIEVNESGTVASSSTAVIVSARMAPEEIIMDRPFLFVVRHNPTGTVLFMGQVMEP

| Structure (SMILES) | pIC50 |
| --- | --- |
| CCc1cc2c(cc1-c1csc(Nc3cccc(C(=O)O)c3)n1)C(C)(C)CCC2(C)C [Compound 3] | 5.96 |
| N#Cc1ccc(Nc2nc(-c3ccc(-c4ccccc4)cc3)cs2)cc1 [Compound 11, 4-{[4-(4-phenylphenyl)-1,3-thiazol-2-yl]amino}benzenecarbonitrile] | 5.80 |
| CCc1cc2c(cc1-c1csc(Nc3ccc(C(=O)O)cc3)n1)C(C)(C)CCC2(C)C [Compound 2, 4-{[4-(3-ethyl-5,5,8,8-tetramethyl-2-5,6,7,8-tetrahydronaphthyl)-1,3-thiazol-2-yl]amino}benzoic acid] | 5.74 |
